Legend:
[1] = tested on: K-562 cells; assay: Resazurin cell viability assay; assay type: cell-based, human; conditions: 72 h
Protocol: Cell viability was determined by a resazurin-based assay as described previously. Briefly, 5 × 10^3 cells/well were seeded into 96-well plates (Corning Inc., Corning, NY, USA) in 180 µL of RPMI 1640 medium and incubated overnight at 37 °C with 5% CO2. Next day, cells were treated with rilpivirine after serially diluted (1:2 dilution for final concentrations ranging from 0.625 µM to 40 µM) or DMSO (0.1%) for specified time periods (24, 48, or 72 h). At the end of the treatment period, 20 µL of resazurin (0.1 mg/mL in PBS) was added per well and incubated for further 4 h. Fluorescence intensities were recorded at 570 nm (excitation)/585 nm (emission) using an EnVision® multilabel plate reader (PerkinElmer, MA, USA). Drug concentrations required for cell viability reduction by 50% (GI50) compared with untreated (DMSO vehicle-treated only) control were determined by a non-linear regression model using GraphPad Prism software version 7.02 (La Jolla, CA, USA).

[2] = tested on: K-562 cells; assay: Cell cycle analysis (PI, flow cytometry); assay type: cell-based, human
Protocol: (§1) To determine the effect of rilpivirine on cell-cycle distribution a flow cytometry-based analysis was performed after staining the untreated and treated cells with propidium iodide (PI) solution [22]. Briefly, 6 × 10^4 cells/well were seeded in 3 mL of medium per well in 6-well plates. After overnight incubation at 37 °C in 5% CO2, the cells were incubated with the test compounds for specified time points. The medium-containing cells were then taken out from the wells and transferred to FACS tubes. Cells were then pelleted by centrifugation at 300 g for 5 min. Afterward, cells were fixed by using 70% (v/v) ice-cold ethanol for 15 min and then again pelleted by centrifugation (300 g for 5 min). Finally, the cells were incubated with 200 µL of PI staining solution (50 μg/mL PI, 0.1% sodium citrate, 0.1 mg/mL RNase A, and 0.1% Triton X-100) for 1.5 h at room temperature in the dark. After the incubation period, the cells were analysed using a CytoFLEX flow cytometer (Beckman Coulter Inc., Brea, CA, USA). CytExpert software version 2.1 was used for data analysis and graph preparation.

[3] = tested on: KG1 cells; parameters: method as in PMID 18056483; conditions: cited from earlier work
[4] = tested on: SKOV-3 ovarian-cancer cells; parameters: method as in PMID 28390117; conditions: FACS analysis; cited from earlier work
[5] = tested on: HL-60 cells; assay: Resazurin cell viability assay; assay type: cell-based; conditions: Homo sapiens, HL-60, 72 h; read-out: 72-h GI50
Protocol: Cell viability was determined by a resazurin-based assay as described previously. […] At the end of the treatment period, 20 µL of resazurin (0.1 mg/mL in PBS) was added per well and incubated for further 4 h.

[6] = tested on: Aurora A; parameters: method as in PMID 36297298; conditions: cited from earlier work
[7] = tested on: U-937 cells; assay: Cell cycle analysis (PI, flow cytometry); assay type: cell-based, human; conditions: 10 µM, 24 h
Protocol: as §1

[8] = tested on: NB4 cells; assay: Cell cycle analysis (PI, flow cytometry); assay type: cell-based, human; conditions: 10 µM, 24 h
Protocol: as §1

**Q.** With `N[C@@H]1CCCN(c2c(/C=C3\SC(=O)NC3=O)cccc2-c2ccccc2)C1` [AZD1208] as the molecule, how does the GI50 [1] read?
**A.** The GI50 was roughly 38 µM.

**Q.** And the cell-cycle arrest ([2]; 60 μM, 48 h)?
**A.** Its cell-cycle arrest is “induced G1 arrest”.

**Q.** With `CC(C)(C)n1nc(-c2ccc(Cl)cc2)c2c(N)ncnc21` [PP2] as the molecule, how does the cell-cycle arrest [3] read?
**A.** Its cell-cycle arrest is “induced G1 cell-cycle arrest”.

**Q.** Which cell-cycle phase arrest [4] does the source give for `Nc1nc(NC2CC2)c2ncn([C@H]3C=C[C@@H](CO)C3)c2n1` [abacavir] here?
**A.** Its cell-cycle phase arrest is “predominance of a G0/G1 phase arrest”.

**Q.** Which GI50 [5] does the source give for `Nc1ccn([C@@H]2O[C@H](CO)[C@@H](O)[C@@H]2O)c(=O)n1` [cytarabine] here?
**A.** Its GI50 is 0.07 µM.

**Q.** Which cell-cycle phase arrest [4] does the source give for `CC(C)CN(C[C@@H](O)[C@H](Cc1ccccc1)NC(=O)O[C@H]1CO[C@H]2OCC[C@H]21)S(=O)(=O)c1ccc(N)cc1` [darunavir] here?
**A.** Its cell-cycle phase arrest is “predominance of a G0/G1 phase arrest”.

**Q.** For `O=C1Nc2ccc(Cl)cc2[C@@](C#CC2CC2)(C(F)(F)F)O1` [efavirenz], which cell-cycle phase arrest [4] is on record?
**A.** The cell-cycle phase arrest was “predominance of a G0/G1 phase arrest”.

**Q.** Which results are given for `Cc1cc(C#N)cc(C)c1Oc1nc(Nc2ccc(C#N)cc2)nc(N)c1Br` [etravirine]?
**A.** Aurora A kinase inhibition [6]: inability to inhibit Aurora A kinase; cell-cycle phase arrest [4]: predominance of a G0/G1 phase arrest; proportion of cells in the G2/M phase [4]: failed to increase the proportion of cells in the G2/M phase; G2/M phase arrest [7]: failed to induce a G2/M phase arrest; G2/M phase arrest ([2]; 10 µM, 24 h): failed to induce a G2/M phase arrest; G2/M phase arrest [8]: failed to induce a G2/M phase arrest

**Q.** With `C[C@H](Cn1cnc2c(N)ncnc21)OCP(=O)(O)O` [tenofovir] as the molecule, how does the cell-cycle phase arrest [4] read?
**A.** The cell-cycle phase arrest was “predominance of a G0/G1 phase arrest”.

Reference: publication PMC9954146, “Anti-Leukaemic Activity of Rilpivirine Is Mediated by Aurora A Kinase Inhibition” (Cancers, 2023)
